Results published in patent publication US11434239B2, “Aza-dihydro-acridone derivatives” (Artax Biopharma Inc., priority 2017, dated 2022).
Where two headings read alike, the source gives them in different places.

Legend:
[1] = target: T1, CYP1A2 (Homo sapiens, UniProt P05177); assay: CYP inhibition, microsomes; type: in vitro ADME; settings: metabolite acetaminophen
T1 construct: premixing appropriate volumes of buffer, microsomes and substrate; from tissue
T1 sequence (P05177 1-516): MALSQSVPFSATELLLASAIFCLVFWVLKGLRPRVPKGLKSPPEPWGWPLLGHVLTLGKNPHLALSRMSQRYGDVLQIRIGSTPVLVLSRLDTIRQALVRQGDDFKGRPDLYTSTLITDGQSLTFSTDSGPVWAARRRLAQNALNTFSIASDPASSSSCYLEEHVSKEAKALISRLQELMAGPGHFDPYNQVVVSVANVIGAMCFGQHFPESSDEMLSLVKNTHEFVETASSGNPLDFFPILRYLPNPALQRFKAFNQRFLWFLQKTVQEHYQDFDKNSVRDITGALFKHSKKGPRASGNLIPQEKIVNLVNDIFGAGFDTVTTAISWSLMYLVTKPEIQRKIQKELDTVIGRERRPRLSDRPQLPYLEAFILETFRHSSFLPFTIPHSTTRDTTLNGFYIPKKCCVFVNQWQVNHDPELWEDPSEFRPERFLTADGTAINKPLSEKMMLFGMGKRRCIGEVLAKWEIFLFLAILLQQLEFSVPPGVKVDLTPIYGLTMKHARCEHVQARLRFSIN
Experimental: (§1) For each isozyme, microsomes-buffer-substrate mixture (MBS mix) is prepared by premixing appropriate volumes of buffer, microsomes and substrate. MBS mixture (179 μL) is transferred to a 96-well reaction plate. An aliquot (1 μL) is spiked from corresponding wells of Test Item stock solution plate to reaction plate. The reaction plate is pre-incubated for 5 minutes at 37° C. Reaction is initiated by the addition of 20 μL of NADPH solution. Each experiment is performed in duplicate. Reaction plate is incubated for predetermined time at 37° C. and quenched using either 200 μL of acetonitrile (for CYP2C9, CYP2D6, CYP2C19 and CYP3A4) or 200 μL of a mixture of 70:30 1% formic acid:acetonitrile (for CYP1A2).

[2] = target: T2, CYP2C19 (Homo sapiens, UniProt P33261); assay: CYP inhibition, microsomes; type: in vitro ADME; settings: metabolite 4′-hydroxy mephenytoin, class symbols
T2 construct: premixing appropriate volumes of buffer, microsomes and substrate; from tissue
T2 sequence (P33261 whole entry): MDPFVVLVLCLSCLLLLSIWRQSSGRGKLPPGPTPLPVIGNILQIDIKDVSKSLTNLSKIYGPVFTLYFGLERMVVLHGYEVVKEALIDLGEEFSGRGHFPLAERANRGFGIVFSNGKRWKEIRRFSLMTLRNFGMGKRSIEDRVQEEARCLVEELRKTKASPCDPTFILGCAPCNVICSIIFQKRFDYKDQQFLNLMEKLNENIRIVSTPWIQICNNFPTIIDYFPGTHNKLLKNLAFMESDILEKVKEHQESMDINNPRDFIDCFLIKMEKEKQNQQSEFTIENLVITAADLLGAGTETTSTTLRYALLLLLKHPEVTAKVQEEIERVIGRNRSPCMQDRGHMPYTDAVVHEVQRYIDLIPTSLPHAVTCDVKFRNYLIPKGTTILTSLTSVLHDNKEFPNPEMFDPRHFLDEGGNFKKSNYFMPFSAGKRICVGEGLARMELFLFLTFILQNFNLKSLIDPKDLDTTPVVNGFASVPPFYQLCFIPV
Experimental: as §1

[3] = target: T3, CYP2C9 (Homo sapiens, UniProt P11712); assay: CYP inhibition, microsomes; type: in vitro ADME; settings: metabolite 4-hydroxy diclofenac
T3 construct: premixing appropriate volumes of buffer, microsomes and substrate; from tissue
T3 sequence (P11712 whole entry): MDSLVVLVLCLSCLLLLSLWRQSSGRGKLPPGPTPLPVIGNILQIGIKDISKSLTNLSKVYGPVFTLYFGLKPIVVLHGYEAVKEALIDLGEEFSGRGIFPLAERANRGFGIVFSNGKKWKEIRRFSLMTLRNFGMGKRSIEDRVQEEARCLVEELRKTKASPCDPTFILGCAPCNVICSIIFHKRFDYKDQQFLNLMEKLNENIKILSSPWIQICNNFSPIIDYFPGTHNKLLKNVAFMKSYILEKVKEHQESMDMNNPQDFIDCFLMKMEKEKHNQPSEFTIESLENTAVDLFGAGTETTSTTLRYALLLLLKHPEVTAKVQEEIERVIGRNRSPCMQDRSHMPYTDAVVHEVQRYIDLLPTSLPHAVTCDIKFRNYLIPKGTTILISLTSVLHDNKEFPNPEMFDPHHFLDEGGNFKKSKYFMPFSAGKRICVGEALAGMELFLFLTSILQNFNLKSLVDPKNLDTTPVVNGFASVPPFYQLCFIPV
Experimental: as §1

[4] = target: T4, CYP2D6 (Homo sapiens, UniProt P10635); assay: CYP inhibition, microsomes; type: in vitro ADME; settings: metabolite dextrorphan, class symbols
T4 construct: premixing appropriate volumes of buffer, microsomes and substrate; from tissue
T4 sequence (P10635 whole entry): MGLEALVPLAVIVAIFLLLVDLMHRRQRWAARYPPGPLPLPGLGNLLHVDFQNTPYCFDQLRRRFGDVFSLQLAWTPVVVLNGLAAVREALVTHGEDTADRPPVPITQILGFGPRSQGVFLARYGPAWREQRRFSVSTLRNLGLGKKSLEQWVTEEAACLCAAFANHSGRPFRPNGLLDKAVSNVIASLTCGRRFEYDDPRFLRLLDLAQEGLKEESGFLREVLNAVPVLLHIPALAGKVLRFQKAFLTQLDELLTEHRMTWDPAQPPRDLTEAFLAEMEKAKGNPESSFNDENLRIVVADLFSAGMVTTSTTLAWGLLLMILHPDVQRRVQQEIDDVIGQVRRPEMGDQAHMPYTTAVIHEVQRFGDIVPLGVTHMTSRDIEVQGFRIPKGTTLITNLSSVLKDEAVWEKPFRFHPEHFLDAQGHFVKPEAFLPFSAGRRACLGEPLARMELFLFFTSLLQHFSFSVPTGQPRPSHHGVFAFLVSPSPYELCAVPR
Experimental: as §1

[5] = target: T5, CYP3A4 (Homo sapiens, UniProt P08684); assay: CYP inhibition, microsomes; type: in vitro ADME
T5 construct: premixing appropriate volumes of buffer, microsomes and substrate; from tissue
T5 sequence (P08684 whole entry): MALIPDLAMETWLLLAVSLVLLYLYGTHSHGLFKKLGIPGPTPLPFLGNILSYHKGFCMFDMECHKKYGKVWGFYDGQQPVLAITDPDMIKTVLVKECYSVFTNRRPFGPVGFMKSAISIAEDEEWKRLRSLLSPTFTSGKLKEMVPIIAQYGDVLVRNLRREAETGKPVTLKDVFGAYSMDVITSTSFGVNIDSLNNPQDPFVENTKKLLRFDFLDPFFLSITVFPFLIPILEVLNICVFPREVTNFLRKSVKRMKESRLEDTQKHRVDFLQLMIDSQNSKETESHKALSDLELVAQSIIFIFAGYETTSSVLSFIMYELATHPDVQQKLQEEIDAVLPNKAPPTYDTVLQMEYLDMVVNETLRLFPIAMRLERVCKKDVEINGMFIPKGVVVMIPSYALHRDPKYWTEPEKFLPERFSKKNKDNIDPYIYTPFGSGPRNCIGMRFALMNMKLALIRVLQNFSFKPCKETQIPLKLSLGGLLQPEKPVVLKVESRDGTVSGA
Experimental: as §1

[6] = Microsomal stability (intrinsic clearance study); type: in vitro ADME; settings: 0.5 mg/mL protein
Experimental: Intrinsic clearance studies are performed individually with mouse, rat and human liver microsomes at 0.5 mg/mL protein concentration. Briefly, for protein concentration 0.5 mg/mL assay, liver microsomal protein (12.5 uL), NAPDH (50 uL) and phosphate buffer (435 uL) are co-incubated (pre-incubation) in a 96-well deep well plate in an orbital incubator (10 min, 37° C.). Reactions are initiated by the addition of 2.5 uL of test item working stock solution (100 uM). Aliquots (50 uL) are withdrawn from the reaction tube at 0, 5, 10, 20 and 30 minutes and the reaction is immediately terminated by transferring to a 96 deep well plate containing 50 uL of acetonitrile. Verapamil is used as a positive control in mouse, rat and human liver microsomes. To the quenched samples internal standard is added and vortex mixed followed by centrifugation at 4000 rpm for 10 minutes and an aliquot of supernatant is taken for LC-MS/MS analysis. Samples are analyzed by a suitable fit-for-purpose multiple reaction monitoring method developed on LC-MS/MS using and API 4000 mass spectrometer to estimate the area ratio (analyte peak area/internal standard peak area).

[7] = target: T6, hERG (Homo sapiens, UniProt Q12809); assay: hERG inhibition, IKr current, patch clamp in HEK cells stably transfected with the hERG clone; type: cell-based; settings: for inhibition at 1 µM / inhibition at 3 µM / inhibition at 10 µM / inhibition at 30 µM: human, HEK cells stably transfected with hERG; for inhibition at 1 µM: pH 7.4, 1 μM; for inhibition at 3 µM: pH 7.4, 3 μM; for inhibition at 10 µM: pH 7.4, 10 μM; for inhibition at 30 µM: pH 7.4, 30 μM; for IC50: test concentrations 1, 3, 10 and 30 μM, read-out: hERG IC 50 (IKr current)
T6 construct: expressed in transfected cells
T6 sequence (Q12809 whole entry): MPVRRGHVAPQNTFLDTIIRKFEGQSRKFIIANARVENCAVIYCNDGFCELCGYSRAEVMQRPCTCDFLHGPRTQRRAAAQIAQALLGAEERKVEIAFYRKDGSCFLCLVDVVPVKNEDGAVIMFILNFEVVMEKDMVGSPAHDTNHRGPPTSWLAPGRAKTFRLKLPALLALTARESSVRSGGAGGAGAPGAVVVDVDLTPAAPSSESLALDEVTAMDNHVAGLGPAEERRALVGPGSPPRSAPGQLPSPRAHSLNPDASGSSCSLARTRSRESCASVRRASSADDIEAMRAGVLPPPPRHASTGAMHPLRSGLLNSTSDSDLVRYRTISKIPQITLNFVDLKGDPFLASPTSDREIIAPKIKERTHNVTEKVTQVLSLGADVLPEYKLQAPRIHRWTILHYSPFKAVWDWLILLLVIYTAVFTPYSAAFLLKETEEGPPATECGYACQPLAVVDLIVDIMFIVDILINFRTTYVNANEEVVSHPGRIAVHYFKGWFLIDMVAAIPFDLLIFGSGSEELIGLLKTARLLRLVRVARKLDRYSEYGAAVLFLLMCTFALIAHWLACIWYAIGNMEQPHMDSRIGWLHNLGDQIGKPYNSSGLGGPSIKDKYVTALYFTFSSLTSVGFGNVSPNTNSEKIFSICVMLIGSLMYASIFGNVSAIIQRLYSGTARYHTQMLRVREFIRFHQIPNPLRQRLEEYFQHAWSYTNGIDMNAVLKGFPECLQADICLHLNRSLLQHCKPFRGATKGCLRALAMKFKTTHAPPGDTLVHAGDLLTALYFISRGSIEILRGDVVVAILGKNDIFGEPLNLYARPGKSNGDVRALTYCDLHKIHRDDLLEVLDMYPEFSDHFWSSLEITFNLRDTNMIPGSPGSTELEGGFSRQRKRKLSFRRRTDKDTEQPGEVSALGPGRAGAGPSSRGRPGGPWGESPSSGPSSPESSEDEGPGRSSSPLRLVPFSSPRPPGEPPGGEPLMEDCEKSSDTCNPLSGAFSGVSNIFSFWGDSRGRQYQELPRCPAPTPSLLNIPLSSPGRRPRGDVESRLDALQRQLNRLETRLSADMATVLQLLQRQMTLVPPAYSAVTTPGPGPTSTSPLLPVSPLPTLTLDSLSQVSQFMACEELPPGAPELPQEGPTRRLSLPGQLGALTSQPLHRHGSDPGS
Experimental: HEK cells stably transfected with the hERG clone are maintained at 37±2° C. in a 5% CO2 incubator. The cells are initially revived and grown in DMEM/F12+GlutaMAX-I medium supplemented with 9% fetal bovine serum (FBS) and antibiotics (Penicillin 100 IU/mL Streptomycin 100 μg/mL) (complete medium). Furthermore, the cells are continuously maintained and passaged in complete media in addition to the appropriate concentration of selection antibiotic (Geneticin (G418) 200 μg/mL) (Selection media). The cells are sub cultured every 2-3 days and medium is changed with complete medium at least a day before the experiment.
The cells are harvested on the day of experiment, dislodged and suspended in sterile filtered external solution (NaCl 140 mM, KCl 4 mM, MgCl2 1 mM, CaCl2 2 mM, D-Glucose monohydrate 5 mM, Hepes/NaOH 10 mM, pH 7.4, Osmolarity:298+/−5 mOsmol).
The NPC®-1 chip of the Port-a-Patch® is filled with 5 μL of internal solution (KCl 50 mM, NaCl 10 mM, KFl 60 mM, EGTA 20 mM, Hepes/KOH 10 mM, pH 7.2, Osmolarity: 285+/−5 mOsmol) and it is screwed onto the chip holder. The Faraday cage is then fixed on the chip holder, such that the external electrode is placed near to the chip aperture. 5 μL of external solution is added to the center of the aperture so that the external electrode is also in contact with the solution.
The experiment is be initiated. […] The suction automatically attracts a cell to the aperture, resulting in an increase in the chip resistance. When the cell is captured and the set threshold for the resistance is reached, the software recognizes this increase in resistance and proceeds to the next step of the sealing procedure. 20 μL of seal enhancer solution (NaCl 80 mM, KCl 4 mM, MgCl2 10 mM, CaCl2 35 mM, Hepes (Na+salt)/HCl pH 7.4, Osmolarity: 298+/−5 mOsmol) is added 2-3 times. When the threshold resistance is reached, Patch Control automatically moves to the step of improving the seal. When the desirable resistance (Rpip) is reached, whole cell mode is attained and maintained.
Finally, hERG protocol is selected to run the experiment. The seal enhancer solution is replaced with 20 μL external solution after 2-4 rinses and then the test item is added (from lower to higher concentration) and checked for current inhibition. All the experiments are performed at ambient temperature (22-25° C.).
A schematic diagram of the Pulse protocol: Cells are stimulated every 10 seconds using the following protocol. The holding potential, sweep intervals and the depolarization/repolarization potentials are furnished in the table below.
Once the stable current is attained (at least 2-5 minutes) vehicle control is added and the current measured till the stable current is achieved. 3-5 consecutive data points from the last stable current phase are considered for further analysis. […] The system performs on-line analysis for several parameters which include functions that acquire data from traces and functions that perform calculations on the results of other functions.

[8] = column CYP3A4^a (footnote a not given), class symbols, read-out: CYP IC50 CYP3A4^a
[9] = column CYP3A4^b (footnote b not given), class symbols, read-out: CYP IC50 CYP3A4^b
[10] = human liver microsomes, read-out: Microsomal stability (T½ min) Human
[11] = mouse liver microsomes, read-out: Microsomal stability (T½ min) Mouse
[12] = rat liver microsomes, read-out: Microsomal stability (T½ min) Rat
[13] = mean of two trials, read-out: Percent Inhibition Mean (%) (IKr current)
[14] = read-out: Percent Inhibition Trial I (IKr current)
[15] = read-out: Percent Inhibition Trial II (IKr current)

Structure (SMILES)	IC50 ([1]; class symbols)	IC50 [2]	IC50 [4]	IC50 [5, 8]	half-life at 0.5 uM [6, 10]	half-life at 0.5 uM [6, 11]	half-life at 0.5 uM [6, 12]	inhibition at 1 µM [7, 13]	inhibition at 1 µM [7, 14]	inhibition at 1 µM [7, 15]	inhibition at 3 µM [7, 13]	inhibition at 3 µM [7, 14]	inhibition at 3 µM [7, 15]	inhibition at 10 µM [7, 13]	inhibition at 10 µM [7, 14]	inhibition at 10 µM [7, 15]	inhibition at 30 µM [7, 13]	inhibition at 30 µM [7, 14]	inhibition at 30 µM [7, 15]	IC50 [7]	other results
Cn1c2c(c(=O)c3ccccc31)CN(Cc1ccccc1)CC2 [Compound I-1, 2-benzyl-5-methyl-1,2,3,4-tetrahydro(5H, 10H)-benzo(b)-1,6-naphthyridin-10-one]	20 to 50 µM	20 to 50 µM	≤ 5 µM	> 50 µM	≤ 30 min	10 to 30 min	10 to 30 min	9.04%	9.22%	8.85%	20.9%	20.4%	21.4%	37.8%	39.6%	35.9%	58.6%	58.9%	58.3%	18.4 µM	IC50 ([3]; class symbols): > 50 µM; IC50 [5, 9]: > 50 µM
CN1c2ccccc2C(O)C2CN(Cc3ccccc3)CCC21 (centres unmarked) [Ia-1]	5 to 20 µM	≤ 5 µM	≤ 5 µM	≤ 5 µM	10 to 30 min	< 10 min	< 10 min	11.4%	12.9%	9.88%	21.9%	21.3%	22.5%	28.9%	29.4%	28.3%	54.4%	54.8%	54.1%	25.7 µM	IC50 [5, 9]: 20 to 50 µM
O=c1c2c([nH]c3cc(F)c(F)cc13)CCN(Cc1ccccc1)C2 [Ib-22]	–	5 to 20 µM	≤ 5 µM	–	≤ 30 min	10 to 30 min	10 to 30 min	4.5%	5.62%	3.37%	15.3%	16%	14.6%	21.4%	23.8%	19%	30.1%	34%	26.2%	47.3 µM	IC50 ([1]; numeric bound): > 12.5 µM; IC50 ([3]; numeric bound): > 12.5 µM; IC50 ([5]; CYP3A4^a, numeric bound, read-out: CYP IC50 CYP3A4^a): > 12.5 µM; IC50 ([5]; numeric bound, read-out: CYP IC50 CYP3A4^b): > 12.5 µM
